# Measurements as given in patent US7452905B2, “Phenylalanine derivatives” (Ajinomoto Co., Inc., priority 2000, dated 2008).
# Target: T1, integrin α4 β1 (Homo sapiens, UniProt P05556+P13612)
# T1 construct: cell strain Jurkat (ATCC TIB-152) of human T cells, known to express integrin α4 β1; endogenous in cells; host or cells: Jurkat (ATCC TIB-152)
# Test: VCAM antagonist activity (VCAM-1/α4β1 binding assay), Jurkat cells binding to VCAM-1
# Type: cell-based
# Conditions: Jurkat cells binding to recombinant human VCAM-1; 50% binding inhibition; read-out: Antagonistic Activity IC50 α 4 β 1/VCAM
# Procedure: VCAM Antagonist Activity (VCAM-1/α4β1 Binding Assay)
# The capacity of a test substance antagonistic to the binding of cell strain Jurkat (ATCC TIB-152) of human T cells, known to express integrin α4 β1, to VCAM-1 was determined. 100 μl/well of a solution (500 ng/ml) of recombinant human VCAM-1 (R & D systems) solution diluted with buffer A (0.1 M NaHCO3, pH 9.6) was added to a micro titer plate having 96 wells (Nunc Maxisorp). After the incubation at 4° C. overnight, unbound VCAM-1 was removed by washing once with PBS. After completion of the washing, a buffer (buffer B) obtained by diluting Block Ace (Dainippon Pharmaceutical Co., Ltd.) with PBS to ¼ concentration was added in an amount of 150 μl/well. After the incubation at room temperature for 1 hour, buffer B was removed and the plate was washed with PBS once.
# Jurkat cells were washed with Dulbecco modified Eagle medium (SIGMA, hereinafter referred to as “DMEM”) twice and then incubated in DMEM containing 10 μg/ml of Calcein-AM (Wako Pure Chemical Industries, Ltd.) at 37° C. in dark place for 30 minutes to label with fluorescence. The cells were again suspended in a binding buffer (20 mM HEPES, DMEM containing 0.1% BSA).
# 50 μl of a test substance of various concentrations obtained by the dilution with the binding buffer was added to the plate. Immediately thereafter, 50 μl (final volume: 100 μl well) of the fluorescent Jurkat cells (4×10^6 cells/ml) were added thereto, and they were incubated at room temperature for 30 minutes. After the shaking on a plate shaker (IKA MTS-4) at 800 rpm for 30 seconds, the solution was immediately removed to remove the unbound cells. The fluorescence quantity of the bound cells remaining in the wells was determined with a fluorescent plate reader (Wallac 1420 ARVO multi-label counter) (filter excitation wave length: 485 nm, emission wave length: 535 nm). The fluorescent strength thus obtained is proportional to the number of Jurkat cells bound to VCAM-1 and remaining on the plate. The binding rate of each test material in various concentrations was determined while the fluorescent strength of the test material-free well was determined to be 100%. The concentration IC50 for the 50% binding inhibition was calculated.
# T1 sequence (P13612 34-1032): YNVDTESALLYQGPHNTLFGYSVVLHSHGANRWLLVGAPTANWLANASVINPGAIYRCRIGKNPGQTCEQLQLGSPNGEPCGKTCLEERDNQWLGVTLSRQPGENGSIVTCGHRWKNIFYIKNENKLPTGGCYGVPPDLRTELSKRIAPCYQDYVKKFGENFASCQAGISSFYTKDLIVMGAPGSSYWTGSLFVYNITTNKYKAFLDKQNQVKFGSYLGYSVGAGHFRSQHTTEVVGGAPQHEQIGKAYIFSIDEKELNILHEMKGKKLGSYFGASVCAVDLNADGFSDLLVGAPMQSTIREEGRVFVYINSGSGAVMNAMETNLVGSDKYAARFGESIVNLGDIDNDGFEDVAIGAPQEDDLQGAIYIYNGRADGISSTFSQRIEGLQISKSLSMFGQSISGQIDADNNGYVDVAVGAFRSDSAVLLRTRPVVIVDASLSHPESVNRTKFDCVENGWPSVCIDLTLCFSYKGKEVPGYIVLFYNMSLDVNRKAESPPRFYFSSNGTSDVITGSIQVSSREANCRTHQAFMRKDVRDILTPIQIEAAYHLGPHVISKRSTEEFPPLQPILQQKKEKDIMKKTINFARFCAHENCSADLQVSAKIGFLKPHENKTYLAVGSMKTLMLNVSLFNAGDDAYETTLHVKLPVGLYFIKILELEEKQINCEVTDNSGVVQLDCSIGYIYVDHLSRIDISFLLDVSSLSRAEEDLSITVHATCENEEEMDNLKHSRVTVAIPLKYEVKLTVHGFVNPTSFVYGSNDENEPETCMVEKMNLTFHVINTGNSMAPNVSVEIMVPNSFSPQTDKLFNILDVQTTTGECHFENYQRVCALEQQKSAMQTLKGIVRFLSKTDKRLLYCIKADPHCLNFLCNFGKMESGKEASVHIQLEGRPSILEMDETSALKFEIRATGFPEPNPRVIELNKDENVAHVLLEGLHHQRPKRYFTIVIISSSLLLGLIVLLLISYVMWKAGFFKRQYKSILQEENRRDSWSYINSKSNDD
# T1 sequence (P05556 21-798): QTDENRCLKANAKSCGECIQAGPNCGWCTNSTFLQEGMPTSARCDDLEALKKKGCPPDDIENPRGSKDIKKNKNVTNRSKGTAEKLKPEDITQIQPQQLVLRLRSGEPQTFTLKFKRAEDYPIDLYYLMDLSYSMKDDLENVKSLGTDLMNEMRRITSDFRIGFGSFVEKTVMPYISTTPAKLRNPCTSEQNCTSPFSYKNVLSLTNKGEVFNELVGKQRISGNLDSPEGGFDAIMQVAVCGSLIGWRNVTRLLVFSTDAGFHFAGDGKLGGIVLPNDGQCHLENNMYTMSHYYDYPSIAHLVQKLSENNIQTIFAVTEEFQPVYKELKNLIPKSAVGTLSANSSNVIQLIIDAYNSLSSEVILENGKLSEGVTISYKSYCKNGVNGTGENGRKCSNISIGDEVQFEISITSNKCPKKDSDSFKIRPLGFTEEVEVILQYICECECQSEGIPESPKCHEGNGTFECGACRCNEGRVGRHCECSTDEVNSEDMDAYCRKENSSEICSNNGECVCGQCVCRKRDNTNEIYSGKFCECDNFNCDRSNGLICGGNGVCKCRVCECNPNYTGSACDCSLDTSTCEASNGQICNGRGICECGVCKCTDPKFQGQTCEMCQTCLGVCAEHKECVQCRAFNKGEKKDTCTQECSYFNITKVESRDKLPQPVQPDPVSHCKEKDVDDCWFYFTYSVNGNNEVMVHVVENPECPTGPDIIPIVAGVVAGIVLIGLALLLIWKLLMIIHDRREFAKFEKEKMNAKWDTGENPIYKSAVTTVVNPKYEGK
row,IC50,SMILES
1,210 nM,O=C(N[C@@H](Cc1ccc(N2C(=O)c3ccccc3C2=O)cc1)C(=O)O)c1c(Cl)cccc1Cl [Example 1]
2,240 nM,Cc1ccc2c(c1)C(=O)N(c1ccc(C[C@H](NC(=O)c3c(Cl)cccc3Cl)C(=O)O)cc1)C2=O [Example 6]
3,170 nM,O=C(N[C@@H](Cc1ccc(N2C(=O)c3ccc([N+](=O)[O-])cc3C2=O)cc1)C(=O)O)c1c(Cl)cccc1Cl [Example 9]
4,740 nM,O=C(N[C@@H](Cc1ccc(N2C(=O)Cc3ccccc3C2=O)cc1)C(=O)O)c1c(Cl)cccc1Cl [Example 15]
5,1100 nM,O=C(N[C@@H](Cc1ccc(N2C(=O)c3cccc4cccc(c34)C2=O)cc1)C(=O)O)c1c(Cl)cccc1Cl [Example 16]
6,1900 nM,O=C(N[C@@H](Cc1ccc(N2Cc3ccccc3C2=O)cc1)C(=O)O)c1c(Cl)cccc1Cl [Example 17]
7,5000 nM,O=C(N[C@@H](Cc1ccc(N2CC=CC2=O)cc1)C(=O)O)c1c(Cl)cccc1Cl [Example 25]
8,5300 nM,O=C(N[C@@H](Cc1ccc(N2CC=CCC2=O)cc1)C(=O)O)c1c(Cl)cccc1Cl [Example 26]
9,2800 nM,O=C(N[C@@H](Cc1ccc(N2CC=CCCC2=O)cc1)C(=O)O)c1c(Cl)cccc1Cl [Example 27]
10,450 nM,Cc1ccc(C)c2c1C(=O)N(c1ccc(C[C@H](NC(=O)c3c(Cl)cccc3Cl)C(=O)O)cc1)C2=O [Example 30]
11,260 nM,CN(C)C(=O)c1ccc2c(c1)C(=O)N(c1ccc(C[C@H](NC(=O)c3c(Cl)cccc3Cl)C(=O)O)cc1)C2=O [Example 33]
12,140 nM,O=C(N[C@@H](Cc1ccc(N2C(=O)C3=C(CCCC3)C2=O)cc1)C(=O)O)c1c(Cl)cccc1Cl [Example 37]
13,220 nM,O=C(N[C@@H](Cc1ccc(N2C(=O)C3=C(SCCS3)C2=O)cc1)C(=O)O)c1c(Cl)cccc1Cl [Example 38]
14,240 nM,O=C(N[C@@H](Cc1ccc(N2C(=O)[C@@H]3CCCC[C@H]3C2=O)cc1)C(=O)O)c1c(Cl)cccc1Cl [Example 40]
15,560 nM,O=C(N[C@@H](Cc1ccc(N2C(=O)[C@@H]3[C@H](C2=O)[C@@H]2C=C[C@H]3C2)cc1)C(=O)O)c1c(Cl)cccc1Cl [Example 42]
16,1600 nM,CC1CCC2C(=O)N(c3ccc(C[C@H](NC(=O)c4c(Cl)cccc4Cl)C(=O)O)cc3)C(=O)C2C1 (some centres unmarked) [Example 43]
17,1400 nM,O=C(N[C@@H](Cc1ccc(N2C(=O)[C@@H]3[C@H](C2=O)[C@@H]2C=C[C@H]3CC2)cc1)C(=O)O)c1c(Cl)cccc1Cl [Example 44]
18,1200 nM,O=C(N[C@@H](Cc1ccc(N2C(=O)[C@H]3CC=CC[C@H]3C2=O)cc1)C(=O)O)c1c(Cl)cccc1Cl [Example 45]

row,IC50,SMILES
1,1700 nM,O=C(N[C@@H](Cc1ccc(N2C(=O)C3CC3C2=O)cc1)C(=O)O)c1c(Cl)cccc1Cl (some centres unmarked) [Example 46]
2,2100 nM,O=C(N[C@@H](Cc1ccc(N2C(=O)[C@H]3CC[C@H](c4ccccc4)C[C@H]3C2=O)cc1)C(=O)O)c1c(Cl)cccc1Cl [Example 47]
3,1300 nM,O=C(N[C@@H](Cc1ccc(N2C(=O)CC3(CCCC3)CC2=O)cc1)C(=O)O)c1c(Cl)cccc1Cl [Example 48]
4,2000 nM,CC1(C)[C@H]2CC[C@]1(C)C(=O)N(c1ccc(C[C@H](NC(=O)c3c(Cl)cccc3Cl)C(=O)O)cc1)C2=O [Example 49]
5,73 nM,Cc1cccc2c1C(=O)N(c1ccc(C[C@H](NC(=O)c3c(Cl)cncc3Cl)C(=O)O)cc1)C2=O [Example 59]
6,410 nM,Nc1cccc2c1C(=O)N(c1ccc(C[C@H](NC(=O)c3c(Cl)cccc3Cl)C(=O)O)cc1)C2=O [Example 71]
7,210 nM,CCOc1cccc2c1C(=O)N(c1ccc(C[C@H](NC(=O)c3c(Cl)cccc3Cl)C(=O)O)cc1)C2=O [Example 73]
8,1200 nM,O=C(N[C@@H](Cc1ccc(N2C(=O)c3cccc(OCc4ccccc4)c3C2=O)cc1)C(=O)O)c1c(Cl)cccc1Cl [Example 74]
9,790 nM,CCCCOc1cccc2c1C(=O)N(c1ccc(C[C@H](NC(=O)c3c(Cl)cccc3Cl)C(=O)O)cc1)C2=O [Example 75]
10,770 nM,O=C(N[C@@H](Cc1ccc(N2C(=O)c3ccc(O)cc3C2=O)cc1)C(=O)O)c1c(Cl)cccc1Cl [Example 77]
11,520 nM,COc1ccc2c(c1)C(=O)N(c1ccc(C[C@H](NC(=O)c3c(Cl)cccc3Cl)C(=O)O)cc1)C2=O [Example 78]
12,570 nM,CCOc1ccc2c(c1)C(=O)N(c1ccc(C[C@H](NC(=O)c3c(Cl)cccc3Cl)C(=O)O)cc1)C2=O [Example 79]
13,1100 nM,O=C(N[C@@H](Cc1ccc(N2C(=O)c3ccc(OCc4ccccc4)cc3C2=O)cc1)C(=O)O)c1c(Cl)cccc1Cl [Example 80]
14,3500 nM,O=C(N[C@@H](Cc1ccc(N2C(=O)Cc3ccccc3CC2=O)cc1)C(=O)O)c1c(Cl)cccc1Cl [Example 82]
15,5.9 nM,"Cc1cccc2c1C(=O)N(c1ccc(C[C@H](NC(=O)c3c(Cl)cc(-c4nnn[nH]4)cc3Cl)C(=O)O)cc1)C2=O [Example 83, (2S)-2-(2,6-dichloro-4-tetrazolyl-benzoylamino)-3-[4-(4-methyl-1,3-dioxo-1,3-dihydroisoindole-2-yl)phenyl] Propionic Acid]"
16,15 nM,Cc1cccc2c1C(=O)N(c1ccc(C[C@H](NC(=O)c3c(Cl)cc(NS(C)(=O)=O)cc3Cl)C(=O)O)cc1)C2=O [Example 84]
17,530 nM,CC(=O)C1Cc2ccccc2C(=O)N1c1ccc(C[C@H](NC(=O)c2c(Cl)cccc2Cl)C(=O)O)cc1 (some centres unmarked) [Example 86]
